Reference: US20250230155A1 (Vanderbilt University, priority 2021, published 2025)
pEC50: −log10 of the molar value.

Target: T1, human mAChR M4 (Homo sapiens, UniProt P08173)
T1 construct: expressed in transfected cells
T1 sequence (P08173 1-479): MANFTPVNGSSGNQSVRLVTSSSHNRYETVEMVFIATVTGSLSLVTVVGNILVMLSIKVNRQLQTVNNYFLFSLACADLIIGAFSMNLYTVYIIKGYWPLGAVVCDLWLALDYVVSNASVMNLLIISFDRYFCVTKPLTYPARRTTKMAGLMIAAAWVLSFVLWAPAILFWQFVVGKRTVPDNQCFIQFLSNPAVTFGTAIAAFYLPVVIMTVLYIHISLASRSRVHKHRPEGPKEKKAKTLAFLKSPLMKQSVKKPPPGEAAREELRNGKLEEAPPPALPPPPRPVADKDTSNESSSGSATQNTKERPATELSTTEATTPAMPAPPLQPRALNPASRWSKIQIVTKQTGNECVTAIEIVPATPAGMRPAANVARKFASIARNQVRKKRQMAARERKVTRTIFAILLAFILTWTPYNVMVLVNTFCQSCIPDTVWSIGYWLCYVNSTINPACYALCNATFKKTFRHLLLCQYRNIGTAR
Test: mAChR M4 cell-based functional assay (calcium mobilization, CHO-K1 hM4-Gqi5 cells)
Settings: for Emax at 30 µM: CHO-K1, % ACh maximum at 30 μM, human M4; for pEC50: positive allosteric modulator activity, increase in the EC20 acetylcholine response, CHO-K1 hM4-Gqi5 cells, read-out: Human M4 EC50
Outline: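 CHO-K1 cells stably expressing human M4 with chimeric Gqi5, loaded with Fluo-4 AM; compounds given as 11-point 1:3 curves and calcium flux read on FDSS at 1 Hz. Acetylcholine EC20 added at 144 s, EC80 at 230 s; agonist, PAM (EC20 potentiation) and antagonist (EC80 inhibition) EC50/Emax from four-parameter fits.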

SMILES: Cc1cc(C#N)cnc1N1CCc2ncc(N3CCCn4nc(C(C)(C)C)cc43)cc2C1 [Example 414, 6-(3-(2-(tert-butyl)-6,7-dihydropyrazolo[1,5-a]pyrimidin-4(5H)-yl)-7,8-dihydro-1,6-naphthyridin-6(5H)-yl)-5-methylnicotinonitrile]
- Emax at 30 µM: 65%
- pEC50: 6.13

SMILES: Cc1cc(C#N)cnc1N1CCc2ncc(N3CCCn4nc(C5CC5)cc43)cc2C1 [Example 415, 6-(3-(2-cyclopropyl-6,7-dihydropyrazolo[1,5-a]pyrimidin-4(5H)-yl)-7,8-dihydro-1,6-naphthyridin-6(5H)-yl)-5-methylnicotinonitrile]
- Emax at 30 µM: 72%
- pEC50: 7.03

SMILES: [2H]C1([2H])N(c2cnc3c(c2)CN(c2nnc(C#N)cc2C)CC3)c2ccnn2C([2H])([2H])C1([2H])[2H] [Example 416, 6-(3-(6,7-dihydropyrazolo[1,5-a]pyrimidin-4(5H)-yl-5,5,6,6,7,7-d6)-7,8-dihydro-1,6-naphthyridin-6(5H)-yl)-5-methylpyridazine-3-carbonitrile]
- Emax at 30 µM: 115%
- pEC50: 6.94

SMILES: [2H]C1([2H])N(c2cnc3c(c2)CN(c2ncc(C#N)cc2C)CC3)c2ccnn2C([2H])([2H])C1([2H])[2H] [Example 417, 6-(3-(6,7-dihydropyrazolo[1,5-a]pyrimidin-4(5H)-yl-5,5,6,6,7,7-d6)-7,8-dihydro-1,6-naphthyridin-6(5H)-yl)-5-methylnicotinonitrile]
- Emax at 30 µM: 110%
- pEC50: 7.62

SMILES: Cc1cc(C#N)nnc1N1CCc2ncc(N3CCCn4nc(C(C)(C)C)cc43)cc2C1 [Example 418, 6-(3-(2-(tert-butyl)-6,7-dihydropyrazolo[1,5-a]pyrimidin-4(5H)-yl)-7,8-dihydro-1,6-naphthyridin-6(5H)-yl)-5-methylpyridazine-3-carbonitrile]
- Emax at 30 µM: 80%
- pEC50: 6.29

SMILES: Cc1cc(C#N)nnc1N1CCc2ncc(N3CCCn4nc(C5CC5)cc43)cc2C1 [Example 419, 6-(3-(2-cyclopropyl-6,7-dihydropyrazolo[1,5-a]pyrimidin-4(5H)-yl)-7,8-dihydro-1,6-naphthyridin-6(5H)-yl)-5-methylpyridazine-3-carbonitrile]
- Emax at 30 µM: 87%
- pEC50: 6.55

SMILES: Cc1cc(C#N)cnc1N1CCc2ncc(N3CCN(C)CC3=O)cc2C1 [Example 420, 5-methyl-6-(3-(4-methyl-2-oxopiperazin-1-yl)-7,8-dihydro-1,6-naphthyridin-6(5H)-yl)nicotinonitrile]
- Emax at 30 µM: 43%
- pEC50: ≤ 5.00

SMILES: [2H]C([2H])([2H])c1cnc2c(c1)CN(c1nnc(C#N)cc1C)CC2 [Example 421, 5-methyl-6-(3-(methyl-d3)-7,8-dihydro-1,6-naphthyridin-6(5H)-yl)pyridazine-3-carbonitrile]
- Emax (CHO-K1): 89%
- pEC50: 6.47

SMILES: Cc1cc(C#N)nnc1N1CCc2ncc(CC(F)(F)F)cc2C1 [Example 422, 5-methyl-6-(3-(2,2,2-trifluoroethyl)-7,8-dihydro-1,6-naphthyridin-6(5H)-yl)pyridazine-3-carbonitrile]
- Emax at 30 µM: 94%
- pEC50: 6.28

SMILES: Cc1cc(C#N)cnc1N1CCc2ncc(CC(F)(F)F)cc2C1 [Example 423, 5-methyl-6-(3-(2,2,2-trifluoroethyl)-7,8-dihydro-1,6-naphthyridin-6(5H)-yl)nicotinonitrile]
- Emax at 30 µM: 76%
- pEC50: 6.64

SMILES: Cc1cc(C#N)nnc1N1CCc2ncc(C(C)(O)C(F)(F)F)cc2C1 (stereo not drawn) [Example 424, 5-methyl-6-(3-(1,1,1-trifluoro-2-hydroxypropan-2-yl)-7,8-dihydro-1,6-naphthyridin-6(5H)-yl)pyridazine-3-carbonitrile]
- Emax at 30 µM: 86%
- pEC50: 5.84

SMILES: Cc1c(C#N)nnc(N2CCc3ncc(C(C)(O)C(F)(F)F)cc3C2)c1C (stereo not drawn) [Example 425, 4,5-dimethyl-6-(3-(1,1,1-trifluoro-2-hydroxypropan-2-yl)-7,8-dihydro-1,6-naphthyridin-6(5H)-yl)pyridazine-3-carbonitrile]
- Emax at 30 µM: 61%
- pEC50: 6.21

SMILES: Cc1cc(C#N)cnc1N1CCc2ncc(C(C)(O)C(F)(F)F)cc2C1 (stereo not drawn) [Example 426, 5-methyl-6-(3-(1,1,1-trifluoro-2-hydroxypropan-2-yl)-7,8-dihydro-1,6-naphthyridin-6(5H)-yl)nicotinonitrile]
- Emax at 30 µM: 95%
- pEC50: 6.24

SMILES: Cc1cc(C#N)cnc1N1CCc2ncc(OCCOc3ccccc3)cc2C1 [Example 427, 5-methyl-6-(3-(2-phenoxyethoxy)-7,8-dihydro-1,6-naphthyridin-6(5H)-yl)nicotinonitrile]
- Emax at 30 µM: 63%
- pEC50: 5.57

SMILES: Cc1cc(C#N)cnc1N1CCc2ncc(OCCOc3ccc(F)cc3)cc2C1 [Example 428, 6-(3-(2-(4-fluorophenoxy)ethoxy)-7,8-dihydro-1,6-naphthyridin-6(5H)-yl)-5-methylnicotinonitrile]
- Emax at 30 µM: 59%
- pEC50: 5.63

SMILES: Cc1cc(C#N)cnc1N1CCc2ncc(OCCOc3ccccc3F)cc2C1 [Example 429, 6-(3-(2-(2-fluorophenoxy)ethoxy)-7,8-dihydro-1,6-naphthyridin-6(5H)-yl)-5-methylnicotinonitrile]
- Emax at 30 µM: 57%
- pEC50: 5.60

SMILES: Cc1ccccc1OCCOc1cnc2c(c1)CN(c1ncc(C#N)cc1C)CC2 [Example 430, 5-methyl-6-(3-(2-(o-tolyloxy)ethoxy)-7,8-dihydro-1,6-naphthyridin-6(5H)-yl)nicotinonitrile]
- Emax at 30 µM: 42%
- pEC50: 5.18

SMILES: Cc1ccc(OCCOc2cnc3c(c2)CN(c2ncc(C#N)cc2C)CC3)cc1 [Example 431, 5-methyl-6-(3-(2-(p-tolyloxy)ethoxy)-7,8-dihydro-1,6-naphthyridin-6(5H)-yl)nicotinonitrile]
- Emax at 30 µM: 47%
- pEC50: ≤ 5.00

SMILES: Cc1cc(C#N)cnc1N1CCc2ncc(OCCCOc3ccccc3)cc2C1 [Example 432, 5-methyl-6-(3-(3-phenoxypropoxy)-7,8-dihydro-1,6-naphthyridin-6(5H)-yl)nicotinonitrile]
- Emax at 30 µM: 48%
- pEC50: 5.17

SMILES: Cc1cc(C#N)cnc1N1CCc2ncc(OCCOC3CCCC3)cc2C1 [Example 433, 6-(3-(2-(cyclopentyloxy)ethoxy)-7,8-dihydro-1,6-naphthyridin-6(5H)-yl)-5-methylnicotinonitrile]
- Emax at 30 µM: 74%
- pEC50: 6.05

SMILES: COCCOc1cnc2c(c1)CN(c1ncc(C#N)cc1C)CC2 [Example 434, 6-(3-(2-methoxyethoxy)-7,8-dihydro-1,6-naphthyridin-6(5H)-yl)-5-methylnicotinonitrile]
- Emax at 30 µM: 102%
- pEC50: 6.02

SMILES: Cc1cncc(-c2cnc3c(c2)CN(c2nnc(C#N)c(C)c2C)CC3)c1 [Example 435, 4,5-dimethyl-6-(3-(5-methylpyridin-3-yl)-7,8-dihydro-1,6-naphthyridin-6(5H)-yl)pyridazine-3-carbonitrile]
- Emax at 30 µM: 61%
- pEC50: 6.04

SMILES: Cc1cc(F)ncc1-c1cnc2c(c1)CN(c1ncc(C#N)cc1C)CC2 [Example 436, 6-(3-(6-fluoro-4-methylpyridin-3-yl)-7,8-dihydro-1,6-naphthyridin-6(5H)-yl)-5-methylnicotinonitrile]
- Emax at 30 µM: 98%
- pEC50: 7.16

SMILES: Cc1cc(F)ncc1-c1cnc2c(c1)CN(c1nccc(C#N)c1C)CC2 [Example 437, 2-(3-(6-fluoro-4-methylpyridin-3-yl)-7,8-dihydro-1,6-naphthyridin-6(5H)-yl)-3-methylisonicotinonitrile]
- Emax at 30 µM: 47%
- pEC50: 6.16
